What follows are molecules tested against T1, 5-HT1A receptor (Rattus norvegicus, UniProt P19327) (assay: Inhibition of 3H-8-OH-DPAT binding to serotonin 5-HT1A receptors in rat brain in vitro). Conditions: 3H-8-OH-DPAT 1 nM; membranes from rat brain minus cerebellum; read-out: IC50, 3H 8-OH-DPAT binding.
T1 sequence (P19327 1-422): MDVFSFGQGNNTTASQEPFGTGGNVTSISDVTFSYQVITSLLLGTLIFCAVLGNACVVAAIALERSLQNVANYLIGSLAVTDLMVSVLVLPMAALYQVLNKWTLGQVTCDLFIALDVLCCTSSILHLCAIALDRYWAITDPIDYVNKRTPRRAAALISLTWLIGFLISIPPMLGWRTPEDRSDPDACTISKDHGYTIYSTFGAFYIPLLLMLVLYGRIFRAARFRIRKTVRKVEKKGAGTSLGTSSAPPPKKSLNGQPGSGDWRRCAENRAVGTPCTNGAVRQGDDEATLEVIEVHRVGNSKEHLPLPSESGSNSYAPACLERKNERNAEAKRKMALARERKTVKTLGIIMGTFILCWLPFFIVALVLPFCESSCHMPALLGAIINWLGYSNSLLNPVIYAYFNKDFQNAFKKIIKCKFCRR
Parameters: 5-HT1A receptors in membranes from rat brain minus cerebellum; from tissue; host or cells: rat brain minus cerebellum, membranes
Experimental: Inhibition of ^3 H-8-OH-DPAT Binding to Serotonin 5-HT1A Receptors in Rat Brain in vitro.
By this method the inhibition by drugs of the binding of the 5-HT1A agonist 3H-8-OH-DPAT (1 nM) to 5-HT1A receptors in membranes from rat brain minus cerebellum is determined in vitro . Accordingly, this is a test for affinity for the 5-HT1A receptor. The assay was performed as described by Hyttel et al., Drug Dev. Res. 1988, 15, 389-404.

| SMILES | IC50 [nM] |
| --- | --- |
| CS(=O)(=O)CCCN1CCN(c2cccc3c2OCC3)CC1 [Compound 1d, 1-(2,3-Dihydrobenzofuran-7-yl)-4-(3-methylsulfonyl-1-propyl)piperazine] | 190 |
| CCOC(=O)c1cc2c(N3CCN(CCN4CCN(C5CCCC5)C4=O)CC3)cccc2o1 [Compound 2cc, Ethyl [4-[4-[2-(3-cyclopentyl-2-imidazolidinon-1-yl)ethyl]-1-piperazinyl]-2-benzofuranyl] carboxylate] | 83 |
| CC(C)(C)N1CCN(CCN2CCN(c3cccc4c3OCCO4)CC2)C1=O [Compound 2ee] | 43 |
| O=C1N(CCN2CCN(c3cccc4nsnc34)CC2)CCN1c1ccccc1 [Compound 2h, 4-[4-[2-(3-Phenylimidazolidin-2-on-1-yl)ethyl]-1-piperazinyl]-2,1,3-benzothiadiazole] | 28 |
| O=C1N(CCCCN2CCN(c3cc(Cl)cc4cc(-c5ccccc5)oc34)CC2)CCN1C1CCCCC1 [Compound 2hh, 1-[4-[4-(5-Chloro-2-phenylbenzofuran-7-yl)-1-piperazinyl]-1-butyl]-3-cyclohexyl-2-imidazolidinone] | 130 |
| O=C1N(CCN2CCN(c3cccc4c3OCC4)CC2)CCN1c1ccc(F)cc1 [Compound 2i, 1-[2-[4-(2,3-Dihydrobenzofuran-7-yl)-1-piperazinyl]ethyl]-3-(4-fluorophenyl)-2-imidazolidinone] | 30 |
| O=C1N(CCN2CCN(c3cc(Cl)cc4cc(-c5ccccc5)oc34)CC2)CCN1C1CCCC1 [Compound 2ii, 1-[2-[4-(5-Chloro-2-phenylbenzofuran-7-yl)-1-piperazinyl]ethyl]-3-cyclopentyl-2-imidazolidinone] | 300 |
| CCOC(=O)c1cc2cccc(N3CCN(CCN4CCN(c5ccccc5)C4=O)CC3)c2[nH]1 [Compound 2j, Ethyl 7-[4-[2-(3-phenyl-2-imidazoidin-2-on-1-yl)ethyl]-1-piperazinyl]-2-indolyl carboxylate] | 53 |
| CCN1CCN(CCN2CCN(c3cccc4c3OCCO4)CC2)C1=O [Compound 2l, 1-[2-[4-(1,4-Benzodioxan-5-yl)-1-piperazinyl]ethyl]-3ethyl-2-imidazolidinone] | 72 |
| CC1(C)COc2c(N3CCN(CCN4CCN(C5CCCC5)C4=O)CC3)cc(Cl)cc21 [Compound 2oo] | 44 |
| CC1(C)COc2c(N3CCN(CCCCCCN4CCN(C5CCCC5)C4=O)CC3)cc(Cl)cc21 [Compound 2pp] | 20 |
| CC1(C)Cc2c(N3CCN(CCCN4CCN(C5CCCCC5)C4=O)CC3)ccc(Cl)c2O1 [Compound 2qq] | 300 |
| O=C1N(CCN2CCN(c3cccc4occc34)CC2)CCN1c1ccccc1 [Compound 2r, 1-[2-(4-Benzofuran-4-yl-1-piperazinyl)ethyl]-3-phenyl-2-imidazolidinone] | 23 |
| O=C1N(CCN2CCN(c3cccc4occc34)CC2)CCN1C1CCCC1 [Compound 2s, 1-[2-(4-Benzofuran-4-yl-1-piperazinyl)ethyl]-3-cyclopentyl-2-imidazolidinone] | 32 |
| O=C1N(CCN2CCN(c3cccc4cc[nH]c34)CC2)CCN1C1CCCC1 [Compound 2u, 1-Cyclopentyl-3-[2-[4-(7-indolyl)-1-piperazinyl]ethyl]-2-imidazolidinone] | 110 |
| O=C1N(CCN2CCN(c3cccc4cc[nH]c34)CC2)CCN1c1ccccc1 [Compound 2v, 1-[2-[4-(7-Indolyl)-1-piperazinyl]ethyl]-3-phenyl-2-imidazolidinone] | 71 |
| O=C1N(CCN2CCN(c3cccc4cnsc34)CC2)CCN1c1ccccc1 [Compound 2x, 1-[2-[4-(1,2-Benzisothiazol-7-yl)-1-piperazinyl]ethyl]-3-phenyl-2-imidazolidinone] | 75 |
| O=C1N(CCN2CCN(c3cccc4[nH]ccc34)CC2)CCN1c1ccccc1 [Compound 2z, 1-[2-[4-(4-Indolyl)-1-piperazinyl]ethyl]-3-phenyl-2-imidazolidinone] | 34 |
| O=C1N(CCCN2CCN(c3cccc4c3OCCO4)CC2)CCN1Cc1ccccc1 [Compound 4a, 1-[3-[4-(1,4-Benzodioxan-5-yl)-1-piperazinyl]-1-propyl]-3-benzyl-2-imidazolidinone] | 18 |
| CCN1CCN(CCCN2CCN(c3cccc4c3OCCO4)CC2)C1=O [Compound 4b, 1-[3-[4-(1,4-Benzodioxan-5-yl)-1-piperazinyl]-1-propyl]-3-ethyl-2-imidazolidinone] | 40 |
| O=C1N(CCCN2CCN(c3cccc4c3OCCO4)CC2)CCN1C1CCCCC1 [Compound 4c, 1-[3-[4-(1,4-Benzodioxan-5-yl)-1-piperazinyl]-1-propyl]-3-cyclohexyl-2-imidazolidinone] | 19 |
| O=S(=O)(CCN1CCN(c2cccc3c2OCC3)CC1)C1CCCCC1 [Compound 6a, 1-(2-Cyclohexylsulfonyl-1-ethyl)-4-(2,3-dihydrobenzofuran-7-yl)piperazine] | 220 |
| O=C1N(CCN2CCN(c3cccc4c3ccn4-c3ccc(F)cc3)CC2)CCN1C1CCCC1 [Compound 7a, 1-Cyclopentyl-3-[2-[4-[1-(4-fluorophenyl)-4-indolyl]-1-piperazinyl]ethyl]-2-imidazolidinone] | 51000 |
| O=C1N(CCN2CCN(c3cccc4c3NCC4)CC2)CCN1C1CCCC1 [Compound 9a, 1-Cyclopentyl-3-[2-[4-(7-indolinyl)-1-piperazinyl]ethyl]-2-imidazolidinone] | 230 |

Stronger by IC50, values ahead:

| IC50 [nM] | SMILES |
| --- | --- |
| 11 | O=C1N(CCN2CCN(c3cccc4ccsc34)CC2)CCN1C1CCCC1 [Compound 2aa, 1-[2-[4-Benzo[b]thiophen-7-yl-1-piperazinyl]ethyl]-3-cyclopentyl-2-imidazolidinone] |
| 0.5 | CC1(C)Cc2cccc(N3CCN(CCCCN4CCN(c5ccc(F)cc5)C4=O)CC3)c2O1 [Compound 2dd, 1-[4-[4-(2,3-Dihydro-2,2-dimethylbenzofuran-7-yl)-1-piperazinyl]-1-butyl]-3-(4-fluorophenyl)-2-imidazolidinone] |
| 6.6 | CC1(C)Cc2cccc(N3CCN(CCCN4CCN(c5ccccc5)C4=O)CC3)c2O1 [Compound 2ff, 1-[3-[4-(2,3-Dihydro-2,2-dimethylbenzofuran-7-yl)-1-piperazinyl]-1-propyl]-3-phenyl-2-imidazolidinone] |
| 2.8 | CC1(C)Cc2cccc(N3CCN(CCCCN4CCN(C56CC7CC(CC(C7)C5)C6)C4=O)CC3)c2O1 [Compound 2gg, 1-Adamantyl-3-[4-[4-(2,3-dihydro-2,2-dimethylbenzofuran-7-yl)-1-piperazinyl]-1-butyl]-2-imidazolidinone] |
| 1.1 | CC1(C)Cc2cccc(N3CCN(CCCCN4CCN(c5cccc6ccccc56)C4=O)CC3)c2O1 [Compound 2jj, 1-[4-[4-(2,3-Dihydro-2,2-dimethylbenzofuran-7-yl)-1-piperazinyl]-1-butyl]-3-(1-naphtyl)-2-imidazolidinone] |
| 15 | O=C1N(CCN2CCN(c3cccc4ccccc34)CC2)CCN1c1ccccc1 [Compound 2k, 1-[2-[4-(1-Naphtyl)-1-piperazinyl]ethyl]-3-phenyl-2-imidazolidinone] |
| 5.7 | CC1(C)Cc2cccc(N3CCN(CCCN4CCN(C5CCCCC5)C4=O)CC3)c2O1 [Compound 2kk, 1-Cyclohexyl-3-[3-[4-(2,3-dihydro-2,2-dimethylbenzofuran-7-yl)-1-piperazinyl]-1-propyl]-2-imidazolidinone] |
| 10 | CC1(C)Cc2cc(F)cc(N3CCN(CCCCN4CCN(c5ccc(F)cc5)C4=O)CC3)c2O1 [Compound 2ll, 1-[4-[4-(2,3-Dihydro-2,2-dimethyl-5-fluorobenzofuran-7-yl)-1-piperazinyl]-1-butyl]-3-(4-fluorophenyl)-2-imidazolidinone] |
| 1.7 | CC1(C)Cc2cc(F)cc(N3CCN(CCCCN4CCN(C5CCCCC5)C4=O)CC3)c2O1 [Compound 2mm] |
| 5.4 | CC1(C)Cc2cccc(N3CCN(CCCCCCN4CCN(C5CCCC5)C4=O)CC3)c2O1 [Compound 2nn, 1-Cyclopentyl-3-[6-[4-(2,3-dihydro-2,2-dimethylbenzofuran-7-yl)-1-piperazinyl]-1-hexyl]-2-imidazolidinone] |
| 13 | O=C1N(CCN2CCN(c3cccc4c3OCCO4)CC2)CCN1C12CC3CC(CC(C3)C1)C2 [Compound 2q, 1-Adamantyl-3-[2-[4-(1,4-benzodioxan-5-yl)-1-piperazinyl]ethyl]-2-imidazolidinone] |
| 15 | O=C1N(CCN2CCN(c3cccc4ccsc34)CC2)CCN1c1ccccc1 [Compound 2t, 1-[2-(4-Benzo[b]thiophen-7-yl-1-piperazinyl)ethyl]-3-phenyl-2-imidazolidinone] |
| 12 | O=c1n(CCN2CCN(c3cccc4c3OCCO4)CC2)ccn1-c1ccccc1 [Compound 5b, 1-[3-[4-(1,4-Benzodioxan-5-yl)-1-piperazinyl]-ethyl]-1,3-dihydro-3-phenyl-2-imidazolone] |
| 3.9 | NC(=O)c1cc2c(N3CCN(CCN4CCN(C5CCCC5)C4=O)CC3)cccc2o1 [Compound 8a, 4-[4-[2-(3-Cyclopentyl-2-imidazolidinon-1-yl)ethyl]-1-piperazinyl]-2-benzofuranylcarboxamide] |

Source: patent US5753661A, “Fused benzo compounds containing a nitrogen heterocycle for the treatment of central nervous system disorders” (priority 1992, dated 1998)
